Test results published in US20130045988A1, “COMBINATION THERAPY” (SHIRE AG, priority 2011, published 2013).
Several values for one entry are separate records, joined by “and”; a condition that tells them apart may be missing. Identical values can stand only once. Entries after “also recorded” stand apart in the source; their conditions may differ. Like-named read-outs stand apart in the source and are kept apart here.

Key:
[1] = tested on: pig colon descendens circular muscle; experiment: EFS-induced submaximal cholinergic contractions of colon circular muscle strips; settings: for influence on the facilitating effect of prucalopride on cholinergic neurotransmission: PDE inhibitor before prucalopride, data not shown; for effect on EFS-induced cholinergic contractions: cumulative half log unit increasing concentrations, IBMX effect range 1-30 μM
Method: Young male pigs (10-12 weeks, 15-25 kg-breed Line 36) were obtained from […], Belgium. On the morning of the experiment, pigs were anaesthetized with an intramuscular injection of 5 ml Zoletil 100 (containing 50 mg/ml tiletamine and 50 mg/ml zolazepam; Virbac Belgium S.A., Belgium). […] The aerated (5% CO2/95% O2) Krebs-Henseleit solution in the organ baths (see example 11) systematically contained 4 μM of the noradrenergic neuron blocker guanethidine and 0.3 mM of the NO synthase inhibitor Nω-nitro-L-arginine methyl ester hydrochloride (L-NAME) to avoid noradrenergic and […] responses respectively. After 60 min of stabilization with refreshing of the Krebs-Henseleit solution every 15 min, strips were contracted with the muscarinic receptor agonist carbachol (3 μM). This procedure was repeated with a 20-min washout period in between. […] NK3, 0.3 μM SB222200) were added and incubated for 30 min before the first electrical stimulation. […] Strips were then stimulated for 1 hour (12 stimulations) with 5 min interval at supramaximal voltage (35 V) (10 s trains; 0.25 ms pulse duration; frequency of 4 Hz). […] The protocols as described in examples 12 and 13 then started. […] Changes in isometric tension were measured using MLT 050/D force transducers (ADInstruments, United Kingdom) and recorded on a PowerLab/8sp data recording system (ADInstruments, United Kingdom) with Chart v5.5.6 software. The obtained data were analysed as follows: […] Results are expressed as means±S.E.M., n referring to tissues from different animals except when otherwise indicated. Statistical analysis was performed by use of Graphpad Prism […]<0.05 was considered statistically significant. When adding PDE inhibitors cumulatively, the last contraction in the presence of each concentration was compared to the reference by repeated measures ANOVA followed by a Bonferroni corrected t-test. […] A cumulative concentration-response curve for the different PDE inhibitors was obtained by adding them in half log unit increasing concentrations, starting after 5 reproducible contractions at V50% had been obtained and registering the responses to 6 trains (30 min) after adding each concentration. Parallel to the cumulative concentration-response curve of rolipram, an isolated concentration-response curve was obtained by adding one single concentration per tissue in 3 animals. […] The solvents DMSO and ethanol were tested separately by adding them cumulatively in the matching dilutions as for the cumulative concentration series of the corresponding PDE inhibitor.

[2] = tested on: pig gastric circular muscle strips; experiment: EFS-induced submaximal cholinergic contractions of gastric circular muscle strips
[3] = tested on: cholinergic neurons innervating pig gastric circular muscle; experiment: EFS-induced acetylcholine release (total radioactivity/tritium outflow) from pig gastric circular muscle strips
PDE = settings: Beavo and Reifsnyder, 1990; read-out: IC50 range; cited from earlier work
[4] = prucalopride 0.03, 0.1 or 0.3 μM

SMILES: CCCCCC[C@@H]([C@@H](C)O)n1cnc2c(N)ncnc21 (racemic) [EHNA]
- influence on the facilitating effect of prucalopride on cholinergic neurotransmission [1]: did not influence the facilitating effect of prucalopride on cholinergic neurotransmission
- influence on submaximal cholinergic contractions ([2]; 1-30 μM): did not significantly influence the submaximal cholinergic contractions
- S2/S1 ratio of EFS-induced total radioactivity outflow ([3]; 10 μM EHNA alone): 0.51±0.05
- influence on basal tritium outflow ([3]; PDE inhibitor alone, 10 μM): did not influence basal

SMILES: Cn1cc(C(=O)OCC2CCN(CCNS(C)(=O)=O)CC2)c2ccccc21 [GR113808]
- influence per se on EFS-induced contractions ([2]; GR113808 1, 10 and 100 nM): did not influence the EFS-induced contractions
- influence on the facilitating effect of prucalopride on EFS-induced contractions ([2]; GR113808 1, 10 and 100 nM versus 0.3 μM prucalopride): concentration-dependently inhibited the facilitating effect of 0.3 μM prucalopride
- S2, EFS-induced outflow of total radioactivity above baseline ([3]; 1 nM GR113808 added 21 min before 0.3 μM prucalopride): 43860 ± 4122 dpm g^−1 tissue
- S2/S1 ratio of EFS-induced total radioactivity outflow ([3]; 1 nM GR113808 followed by 0.3 μM prucalopride): 1.05 ± 0.08
- S2, EFS-induced outflow of total radioactivity above baseline ([3]; 10 nM GR113808 added 21 min before 0.3 μM prucalopride): 39273 ± 9533 dpm g^−1 tissue
- S2/S1 ratio of EFS-induced total radioactivity outflow ([3]; 10 nM GR113808 followed by 0.3 μM prucalopride): 0.86 ± 0.04
- S2, EFS-induced outflow of total radioactivity above baseline ([3]; 100 nM GR113808 added 21 min before 0.3 μM prucalopride): 47590 ± 8293 dpm g^−1 tissue
- S2/S1 ratio of EFS-induced total radioactivity outflow ([3]; 100 nM GR113808 followed by 0.3 μM prucalopride): 0.74 ± 0.05
- influence on basal tritium outflow ([3]; GR113808 1, 10, 100 nM): did not influence basal tritium outflow
- influence on the facilitating effect of prucalopride on EFS-induced acetylcholine release ([3]; GR113808 1, 10, 100 nM versus 0.3 μM prucalopride): concentration-dependently antagonized the facilitating effect of 0.3 μM prucalopride
- S1, EFS-induced outflow of total radioactivity above baseline ([3]; first stimulation S1, before drugs, tissues given 1 nM GR113808 then 0.3 μM prucalopride): 42314 ± 3744 dpm g^−1 tissue
- S1, EFS-induced outflow of total radioactivity above baseline ([3]; first stimulation S1, before drugs, tissues given 10 nM GR113808 then 0.3 μM prucalopride): 45180 ± 10235 dpm g^−1 tissue
- S1, EFS-induced outflow of total radioactivity above baseline ([3]; first stimulation S1, before drugs, tissues given 100 nM GR113808 then 0.3 μM prucalopride): 49850 ± 8210 dpm g^−1 tissue

SMILES: CC(C)Cn1c(=O)n(C)c(=O)c2[nH]cnc21 [IBMX, 3-isobutyl-1-methyl-xanthine]
- effect on EFS-induced cholinergic contractions [1]: concentration-dependently inhibited EFS-induced cholinergic contractions
- EFS-induced contractions decreased maximally to % of response before ([2]; 3 μM IBMX, piglets): 84±2%
- effect on EFS-induced cholinergic contractions ([2]; 30 μM IBMX): nearly abolished
- effect on amplitude of the EFS-induced cholinergic contractions ([2]; IBMX, half log unit ascending concentrations): concentration-dependent reduction of the amplitude of the EFS-induced cholinergic contractions from 3 μM onwards
- IC50 (PDE): 2 to 50 µM
- influence on EFS-induced tritium outflow ([3]; IBMX 10 μM alone): nor did it influence EFS-induced tritium outflow; also recorded: did not significantly influence EFS-induced tritium outflow
- influence on basal tritium outflow ([3]; PDE inhibitor alone, 10 μM): did not influence basal

SMILES: CN1[C@@H]2CC[C@H]1C[C@@H](OC(=O)C(CO)c1ccccc1)C2 (some centres unmarked) [atropine]
- effect on EFS-induced contractions at V50% C [2]: abolished

SMILES: CN(C(=O)CCCOc1ccc2[nH]c(=O)ccc2c1)C1CCCCC1 [cilostamide]
- potency versus IBMX in inhibiting EFS-induced cholinergic contractions [1]: about 100 times
- inhibition at 0.03 µM ([1]; Sus scrofa, 0.03 μM cilostamide): 75%
- effect on EFS-induced cholinergic contractions [1]: concentration-dependently inhibited EFS-induced cholinergic contractions
- contraction at the 10th stimulation train, % of the response before ([2]; 1 μM cilostamide alone): 59±13%
- activity at 3 µM ([2]; Sus scrofa, 3 μM cilostamide, maximal depression, read-out: EFS-induced contraction, reduction to % of response before PDE-inhibitor): 68 ± 11%
- influence on submaximal cholinergic contractions ([2]; cilostamide 0.01-10 μM): reduced the contractions from 0.1 μM onwards
- influence on basal tritium outflow ([3]; PDE inhibitor alone, 1 μM): None of these PDE-inhibitors alone influenced basal tritium outflow

SMILES: COCCCN1CCC(NC(=O)c2cc(Cl)c(N)c3c2OCC3)CC1 [prucalopride, 4-amino-5-chloro-2,3-di-hydro-N-[r-(3-methoxypropyl)-4-piperidinyl]-7-benzo-furan-carboxamide]
- effect on EFS-induced cholinergic submaximal contractions ([1]; 1 μM prucalopride): systematically enhanced EFS-induced cholinergic submaximal contractions
- electrically induced contractions, % of mean of 5 contractions before ([2]; 0.01 μM prucalopride alone): 162±11%
- electrically induced contractions, % of mean of 5 contractions before ([2]; 0.03 μM prucalopride alone): 171±15%
- electrically induced contractions, % of mean of 5 contractions before ([2]; 0.1 μM prucalopride alone): 206±10%
- effect on amplitude of the EFS-induced contractions [2, 4]: progressively enhanced the amplitude of the EFS-induced contractions
- influence on basal tone of the strips [2, 4]: did not influence the basal tone of the strips
- S1, EFS-induced outflow of total radioactivity above baseline [3]: 68328 ± 11006 dpm g^−1 tissue and 91698 ± 24563 dpm g^−1 tissue and 61343 ± 11445 dpm g^−1 tissue and 50543 ± 3791 dpm g^−1 tissue
- S2, EFS-induced outflow of total radioactivity above baseline ([3]; 0.03 μM prucalopride added 15 min before S2): 62398 ± 8272 dpm g^−1 tissue
- influence on EFS-induced tritium outflow ([3]; 0.03 μM prucalopride alone): enhanced EFS-induced tritium outflow
- S2, EFS-induced outflow of total radioactivity above baseline ([3]; 0.1 μM prucalopride added 15 min before S2): 91877 ± 21668 dpm g^−1 tissue
- S2, EFS-induced outflow of total radioactivity above baseline ([3]; 0.3 μM prucalopride added 15 min before S2): 61498 ± 9813 dpm g^−1 tissue and 52591 ± 2950 dpm g^−1 tissue
- influence on basal tritium outflow ([3]; prucalopride 0.03, 0.1 and 0.3 μM): did not influence the basal outflow

SMILES: O=C(Nc1c(Cl)cncc1Cl)c1ccc(OC(F)F)c(OCC2CC2)c1 [roflumilast]
- S2/S1 ratio of EFS-induced total radioactivity outflow ([3]; 0.3 μM roflumilast alone, 36 min before S2): 0.85±0.02

SMILES: COc1ccc(C2CNC(=O)C2)cc1OC1CCCC1 (centres unmarked) [rolipram]
- effect on EFS-induced contractions ([1]; 3 μM rolipram, before prucalopride is added): did not enhanced the EFS-induced contractions
- effect on EFS-induced contractions ([1]; 0.1 and 0.3 μM rolipram): significant increase of the EFS-induced contractions
- mean contractile response to the 10th stimulation train, % of response before administration ([2]; 1 μM rolipram alone, before adding prucalopride, three tissue groups): 114±8% and 115±8% and 122±9%
- individual contractile response to the 10th stimulation, % of response before administration ([2]; 1 μM rolipram alone, single tissues of the group later given 0.03 μM prucalopride): 96% and 111% and 137% and 155% and 93% and 102% and 101% and 128%
- influence on submaximal cholinergic contractions ([2]; 1-30 μM): did not significantly influence the submaximal cholinergic contractions
- influence on basal tritium outflow ([3]; PDE inhibitor alone, 1 μM): None of these PDE-inhibitors alone influenced basal tritium outflow

SMILES: NC1=N[C@H](O)[C@H]2[C@H]3O[C@]4(O)O[C@@H]([C@@H](O)[C@@]2(N1)[C@@H]4O)[C@]3(O)CO [tetrodotoxin]
- effect on EFS-induced contractions at V50% C [2]: abolished

SMILES: CC(C)n1c(=O)c(C(=O)N[C@H]2C[C@H]3CC[C@@H](C2)N3C[C@@H](O)CN(C)S(C)(=O)=O)cc2ccccc21 [velusetrag]
- S2/S1 ratio of EFS-induced total radioactivity outflow [3]: 0.7±0.03

SMILES: CCOC(=O)C1=C[C@]2(CC)CCCN3CCc4c(n1c1ccccc41)[C@@H]32 [vinpocetine]
- influence on the facilitating effect of prucalopride on cholinergic neurotransmission [1]: did not influence the facilitating effect of prucalopride on cholinergic neurotransmission
- influence on submaximal cholinergic contractions ([2]; vinpocetine 0.01-10 μM): did not significantly influence the submaximal cholinergic contractions
- influence on basal tritium outflow ([3]; PDE inhibitor alone, 10 μM): None of these PDE-inhibitors alone influenced basal tritium outflow
